Measurements as given in patent US20230382949A1 (HEPTARES THERAPEUTICS LIMITED, priority 2020, published 2023).
Read-outs that look alike come from different tables or passages of the source. Starred links: 1 amine or outer side, 2 acyl side, 3 side chain; linkers in the order of their positions; H or OH if unused. Non-standard residues stand in square brackets, D forms with d. Residues, ends and D or L forms follow the SMILES beside them. *: point of attachment. Ala(piperidin-4-yl) = O=C([C@H](CC1CCN([*:3])CC1)N[*:1])[*:2]; Malonyl(2,2-Me2,histaminyl) = CC(C)(C(=O)NCCc1cnc[nH]1)C(=O)*; dBip = N[C@H](Cc1ccc(-c2ccccc2)cc1)C(=O)O; Oic = O=C(O)[C@@H]1C[C@@H]2CCCC[C@@H]2N1; Phe(3-Cl) = N[C@@H](Cc1cccc(Cl)c1)C(=O)O; Phe(4-Br) = N[C@@H](Cc1ccc(Br)cc1)C(=O)O; hArg = N=C(N)NCCCC[C@H](N)C(=O)O; dCha = N[C@H](CC1CCCCC1)C(=O)O; Nle = CCCC[C@H](N)C(=O)O; Aib = CC(C)(N)C(=O)O; Bn = c1ccc(C*)cc1; Sar = CNCC(=O)O

Legend:
[1] = target: T1, human Apelin receptor (Homo sapiens, UniProt P35414); experiment: cAMP accumulation assay (HTRF), functional agonism of human Apelin receptors; assay type: cell-based; conditions: for Emax: CHO
T1 sequence (P35414 1-380): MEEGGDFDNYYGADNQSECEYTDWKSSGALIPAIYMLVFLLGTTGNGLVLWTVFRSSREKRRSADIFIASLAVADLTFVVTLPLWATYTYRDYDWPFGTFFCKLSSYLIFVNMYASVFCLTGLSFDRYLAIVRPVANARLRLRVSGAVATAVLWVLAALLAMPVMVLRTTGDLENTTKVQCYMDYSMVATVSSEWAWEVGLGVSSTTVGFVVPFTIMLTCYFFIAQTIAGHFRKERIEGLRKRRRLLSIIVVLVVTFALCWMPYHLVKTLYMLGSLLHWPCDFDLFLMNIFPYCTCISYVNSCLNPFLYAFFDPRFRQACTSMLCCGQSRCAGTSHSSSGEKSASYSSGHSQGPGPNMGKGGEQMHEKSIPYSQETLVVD
Text: cAMP functional assay. cAMP production was quantified using the Homogeneous Time-Resolved Fluorescence (HTRF) cAMP dynamic-2 assay (Cisbio, France).

[2] = target: T2, human Apelin receptor (Homo sapiens, UniProt P35414); experiment: β-arrestin accumulation assay, functional agonism of human Apelin receptors; assay type: cell-based
T2 construct: host or cells: CHO-K1 cells
Protocol: β-arrestin assay. […] After 16 h incubation at 37° C. media was removed and cells were incubated at 37° C. for 90 min in serum free media containing increasing concentrations of test agonist. The assay reaction was stopped by adding detection reagent (DiscoveRx) and incubation for 60 min in the dark. Levels of receptor activation were then measured on a PheraStar fluorescence plate reader (BMG LabTech) and EC50 values were determined using Graphpad Prism.
T2 sequence (P32121 whole entry partner, one chain of several): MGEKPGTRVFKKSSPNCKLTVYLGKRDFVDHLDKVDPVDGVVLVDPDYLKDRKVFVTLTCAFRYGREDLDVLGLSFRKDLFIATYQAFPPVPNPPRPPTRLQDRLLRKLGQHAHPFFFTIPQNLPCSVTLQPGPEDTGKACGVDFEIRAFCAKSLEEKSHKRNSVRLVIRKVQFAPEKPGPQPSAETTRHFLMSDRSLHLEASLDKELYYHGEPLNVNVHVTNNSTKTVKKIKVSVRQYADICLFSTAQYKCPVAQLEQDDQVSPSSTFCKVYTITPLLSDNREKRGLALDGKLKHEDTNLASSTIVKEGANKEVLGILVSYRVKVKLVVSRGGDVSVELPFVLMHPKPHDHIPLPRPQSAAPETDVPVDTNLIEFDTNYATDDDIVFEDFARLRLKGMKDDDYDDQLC

[3] = Human Apelin agonist cAMP assay, CHO cells stably expressing the human Apelin receptor, 3 uM forskolin
[4] = pEC50, Human Apelin agonist cAMP assay, CHO cells stably expressing the human Apelin receptor, 3 uM forskolin

Structure (SMILES) | Emax [1, 3] | EC50 [1, 4] | EC50 [2] | Emax ([1]; read-out: Emax) | EC50 ([1]; read-out: pEC50 (converted))
CCCC[C@H](NC(=O)[C@@H]1C[C@@H]2CCCC[C@@H]2N1C(=O)CNC(=O)[C@H](CC1CCNCC1)NC(=O)[C@H](Cc1ccc(Br)cc1)NC(=O)C(C)(C)NC(=O)[C@H](CC(C)C)NC(=O)[C@H](CCCNC(=N)N)NC(=O)[C@@H]1CCCN1C(=O)[C@@H](CCCNC(=N)N)NC(=O)[C@H](CCC(N)=O)NC(=O)[C@@H](CCCNC(=N)N)NC(=O)C(C)(C)C(=O)NCCc1cnc[nH]1)C(=O)N1CCC[C@H]1C(=O)N[C@H](Cc1ccc(-c2ccccc2)cc1)C(=O)O [Example 34] ({Malonyl(2,2-Me2,histaminyl)}-[dR]Q[dR]PRL[Aib][Phe(4-Br)][Ala(piperidin-4-yl)]G[Oic][Nle]P[dBip]-OH) | 60.6% | 25.1 nM | > 10000 nM | – | –
CC(C)C[C@H](NC(=O)[C@@H](CCCNC(=N)N)NC(=O)[C@@H]1CCCN1C(=O)[C@H](CCCCNC(=N)N)NC(=O)[C@H](CCC(N)=O)NC(=O)C(C)(C)C(=O)NCCc1cnc[nH]1)C(=O)NC(C)(C)C(=O)N[C@@H](Cc1c[nH]cn1)C(=O)N[C@@H](CC1CCNCC1)C(=O)N(C)CC(=O)N1[C@H](C(=O)N[C@@H](Cc2ccc(Br)cc2)C(=O)N2CCC[C@H]2C(=O)N[C@H](Cc2ccc(-c3ccccc3)cc2)C(=O)O)C[C@@H]2CCCC[C@@H]21 [Example 52] ({Malonyl(2,2-Me2,histaminyl)}-Q[hArg]P[dR]L[Aib]H[Ala(piperidin-4-yl)][Sar][Oic][Phe(4-Br)]P[dBip]-OH) | 20.4% | 63.1 nM | > 10000 nM | – | –
CC(C)C[C@H](NC(=O)[C@@H](CCCNC(=N)N)NC(=O)[C@@H]1CCCN1C(=O)[C@H](CCCCNC(=N)N)NC(=O)[C@H](CCC(N)=O)NC(=O)[C@@H](CCCNC(=N)N)NC(=O)C(C)(C)C(=O)NCCc1c[nH]cn1)C(=O)NC(C)(C)C(=O)N[C@@H](Cc1c[nH]cn1)C(=O)N[C@@H](CC1CCNCC1)C(=O)NCC(=O)N1[C@H](C(=O)N[C@@H](Cc2ccc(Br)cc2)C(=O)N2CCC[C@H]2C(=O)N[C@H](CC2CCCCC2)C(=O)O)C[C@@H]2CCCC[C@@H]21 [Example 24] ({Malonyl(2,2-Me2,histaminyl)}-[dR]Q[hArg]P[dR]L[Aib]H[Ala(piperidin-4-yl)]G[Oic][Phe(4-Br)]P[dCha]-OH) | – | – | > 10000 nM | 87.9% | 31.6 nM
CC(C)C[C@H](NC(=O)[C@@H](CCCNC(=N)N)NC(=O)[C@@H]1CCCN1C(=O)[C@H](CCCCNC(=N)N)NC(=O)[C@H](CCC(N)=O)NC(=O)[C@@H](CCCNC(=N)N)NC(=O)C(C)(C)C(=O)NCCc1c[nH]cn1)C(=O)NC(C)(C)C(=O)N[C@@H](Cc1c[nH]cn1)C(=O)N[C@@H](CC1CCNCC1)C(=O)NCC(=O)N1[C@H](C(=O)N[C@@H](Cc2ccc(Br)cc2)C(=O)N2CCC[C@H]2C(=O)N[C@H](Cc2ccc(OCc3ccccc3)cc2)C(=O)O)C[C@@H]2CCCC[C@@H]21 [Example 22] ({Malonyl(2,2-Me2,histaminyl)}-[dR]Q[hArg]P[dR]L[Aib]H[Ala(piperidin-4-yl)]G[Oic][Phe(4-Br)]P[dY](Bn)-OH) | 98.1% | 7.94 nM | > 10000 nM | – | –
CC(C)C[C@@H](NC(=O)[C@@H](CCCNC(=N)N)NC(=O)[C@@H]1CCCN1C(=O)[C@H](CCCCNC(=N)N)NC(=O)[C@@H](CCC(N)=O)NC(=O)C(C)(C)C(=O)NCCc1cnc[nH]1)C(=O)NC(C)(C)C(=O)N[C@@H](Cc1c[nH]cn1)C(=O)N[C@@H](CC1CCNCC1)C(=O)N[C@H](C)C(=O)N1[C@H](C(=O)N[C@@H](Cc2ccc(Br)cc2)C(=O)N2CCC[C@H]2C(=O)N[C@H](Cc2ccc(-c3ccccc3)cc2)C(=O)O)C[C@@H]2CCCC[C@@H]21 [Example 48] ({Malonyl(2,2-Me2,histaminyl)}-[dQ][hArg]P[dR][dL][Aib]H[Ala(piperidin-4-yl)][dA][Oic][Phe(4-Br)]P[dBip]-OH) | 33.5% | 100 nM | > 10000 nM | – | –
CC(C)C[C@H](NC(=O)[C@@H](CCCNC(=N)N)NC(=O)[C@@H]1CCCN1C(=O)[C@H](CCCCNC(=N)N)NC(=O)[C@H](CCC(N)=O)NC(=O)[C@@H](CCCNC(=N)N)NC(=O)C(C)(C)C(=O)NCCc1c[nH]cn1)C(=O)NC(C)(C)C(=O)N[C@@H](Cc1c[nH]cn1)C(=O)N[C@@H](CC1CCNCC1)C(=O)NCC(=O)N1[C@H](C(=O)N[C@@H](Cc2cccc(Cl)c2)C(=O)N2CCC[C@H]2C(=O)N[C@H](Cc2ccc(-c3ccccc3)cc2)C(=O)O)C[C@@H]2CCCC[C@@H]21 [Example 18] ({Malonyl(2,2-Me2,histaminyl)}-[dR]Q[hArg]P[dR]L[Aib]H[Ala(piperidin-4-yl)]G[Oic][Phe(3-Cl)]P[dBip]-OH) | 47.5% | 79.4 nM | > 10000 nM | – | –
